Experimental data: US5928185A, “Iontophoresis device for the transcutaneous delivery of an active principle such as an anionic oligosaccharide” (Sanofi, priority 1995, dated 1999)

Key:
[1] = Administration of pentasaccharide sodium salt to minipigs by iontophoresis with periodic current reversal; plasma levels (Example 4); assay type: in vivo, minipig
Protocol: Administration to minipigs of the sodium salt of a pentasaccharide by iontophoresis with set current density with periodic reversal of the current direction.
The following iontophoretic administration tests were carried out on 4 minipigs by using the same current generator and the same type of electrodes as in Example 3, and by applying the following conditions:
The electrodes themselves consisted of 15 μm thick silver films chlorided by electrolytic oxidation in a ratio of 0.5 mAh of silver chloride per cm^2. The reservoirs, also measuring 20 cm^2, consisted of a sheet of blotting paper made of cellulose fibres supplemented with polypropylene fibrils, impregnated to a level of 50 mg/cm^2 with an aqueous solution containing 2% by weight of pentasaccharide and 0.2% by weight of NaCl. Each electrode, the anode and the cathode, contained in all 1 g of solution, i.e. 20 mg of pentasaccharide (1 mg/cm^2) for an active surface area of 20 cm^2. 40 mg of pentasaccharide were therefore engaged in all per animal.
The current generator delivered a constant intensity of 2.5 mA, i.e. 125 μA/cm^2 of direct current with regular reversals of the current direction every 30 minutes for a total time of 8 hours, corresponding to the passage of […] of direct current.
Each of the electrodes, having identical structure and composition, was therefore operated alternately as the cathode and then as the anode, the presence of sodium chloride in each of the reservoirs ensuring their permanent operation as a reversible electrode, thus avoiding any parasitic reaction of hydrolysis (with a change in the pH) or oxidation/reduction of the active principle.
In test 4a, involving 3 animals with an average weight of 11.8 kg, the electrodes were put in place but not connected to the current generator, whereas for all the tests 4b, which concerned 4 animals with an average weight of 12.3 kg, the current of 2.5 mA was applied for 8 hours with automated reversal of the current direction every half hour.
In tests 4a and 4b, a number of blood samples were taken periodically up to 30 hours after the start of each experiment, as in Example 3.
The plasma levels of the various samples are indicated in Table IV for the purpose of comparing tests 4a and 4b with one another and with the results of the tests carried out in Example 3, in particular tests 3c and 3d which correspond to intravenous and subcutaneous injections.

factor Xa = experiment: Antifactor Xa activity of the pentasaccharide sodium salt; assay type: biochemical
Protocol: The assay of the pentasaccharide in the receiver compartment was based on investigating its antifactor Xa activity. The assay was carried out either directly on the medium sampled from the receiver compartment or after dilution, using a ROTACHROM HEPARIN 8® assay kit, a complementary buffer for the assay instrument and bovine antithrombin III, these various elements being supplied by the company STAGO, using a HITACHI 717 assay instrument. The calibration curve was established using a "Golden Standard" pentasaccharide solution to which an antifactor Xa activity equal to 13 units per ml was assigned.

[2] = Transdermic passage of sodium pentasaccharide salt by iontophoresis at set intensity through nude rat skin (Example 2); assay type: in vitro ADME
Protocol: The procedure as described in Example 1 was carried out, but with the following modifications:
implementation of the iontophoresis by setting a constant intensity through each cell
use of a continuous current instead of a pulsed current
the absence of buffer in the donor and back-electrode compartments in test 2d, because these compartments are equipped with electrodes of the Ag/AgCl type, which avoid hydrolysis of water.
[…], over a period of 6 hours, using a generator making it possible to set a constant intensity irrespective of the voltages generated across the terminals of each cell.

[3] = test 4b: iontophoresis 0.125 mA/cm^2, 8 hours, reversal every 30 minutes
[4] = test 2a: titanium, 0 mA/cm^2 (passive)

Structure (SMILES): O=C(O)C1OC(OC2C(COS(=O)(=O)O)OC(OC3C(C(=O)O)OC(OC4C(COS(=O)(=O)O)OC(O)C(NS(=O)(=O)O)C4O)C(OS(=O)(=O)O)C3O)C(NS(=O)(=O)O)C2OS(=O)(=O)O)C(O)C(O)C1OC1OC(COS(=O)(=O)O)C(O)C(O)C1NS(=O)(=O)O (centres unmarked) [pentasaccharide]
- bioavailability ([1]; minipig, plasma, topical, test 4b, 40 mg engaged): ~21%
- average quantity of pentasaccharide administered during the treatment ([1]; passive test 4a): zero
- Initial plasma level ([1]; test 4a: passive, 0 mA/cm^2): 0 anti-Xa U/mL
- Plasma level at 30 minutes ([1]; test 4a: passive, 0 mA/cm^2): 0
- Plasma level at 1 hour ([1]; test 4a: passive, 0 mA/cm^2): 0
- Plasma level at 2 hours ([1]; test 4a: passive, 0 mA/cm^2): 0
- Plasma level at 4 hours ([1]; test 4a: passive, 0 mA/cm^2): 0
- Plasma level at 6 hours ([1]; test 4a: passive, 0 mA/cm^2): 0
- Plasma level at 8 hours ([1]; test 4a: passive, 0 mA/cm^2): 0
- Plasma level at 10 hours ([1]; test 4a: passive, 0 mA/cm^2): 0
- Plasma level at 12 hours ([1]; test 4a: passive, 0 mA/cm^2): 0
- Plasma level at 16 hours ([1]; test 4a: passive, 0 mA/cm^2): 0
- Plasma level at 26 hours ([1]; test 4a: passive, 0 mA/cm^2): 0
- Plasma level at 30 hours ([1]; test 4a: passive, 0 mA/cm^2): 0
- quantity of pentasaccharide administered per mAh ([1]; test 4b): 372 μg/cm^2
- Initial plasma level [1, 3]: 0 anti-Xa U/mL
- Plasma level at 30 minutes [1, 3]: 0.11 ± 0.05
- Plasma level at 1 hour [1, 3]: 0.16 ± 0.05
- Plasma level at 2 hours [1, 3]: 0.28 ± 0.1
- Plasma level at 4 hours [1, 3]: 0.64 ± 0.2
- Plasma level at 6 hours [1, 3]: 0.57 ± 0.18
- Plasma level at 8 hours [1, 3]: 0.59 ± 0.15
- Plasma level at 10 hours [1, 3]: 0.61 ± 0.16
- Plasma level at 12 hours [1, 3]: 0.58 ± 0.05
- Plasma level at 16 hours [1, 3]: 0.2 ± 0.05
- Plasma level at 26 hours [1, 3]: 0.14 ± 0.02
- Plasma level at 30 hours [1, 3]: 0.05 ± 0.02
- average quantity of pentasaccharide administered during the treatment ([1]; test 4b, from area under the curve): 8.45 ± 1.5 mg
- antifactor Xa activity (factor Xa): 0.65 "Golden Standard" units per microgram
- Fraction of active principle used (%) ([2]; at 6 hours, test 2a: titanium, 0 mA/cm^2 (passive)): ~ zero
- Fraction of active principle used (%) ([2]; at 6 hours, test 2b: graphite, 0.2 mA/cm^2): 0.09%
- Fraction of active principle used (%) ([2]; at 6 hours, test 2c: titanium, 0.2 mA/cm^2): 0.49%
- Fraction of active principle used (%) ([2]; at 6 hours, test 2d: Ag/AgCl, 0.2 mA/cm^2): 2.8%
- Fraction of active principle used (%) ([2]; at 24 hours, test 2a: titanium, 0 mA/cm^2 (passive)): 0.09%
- Fraction of active principle used (%) ([2]; at 24 hours, test 2b: graphite, 0.2 mA/cm^2): 0.9%
- Fraction of active principle used (%) ([2]; at 24 hours, test 2c: titanium, 0.2 mA/cm^2): 0.75%
- Fraction of active principle used (%) ([2]; at 24 hours, test 2d: Ag/AgCl, 0.2 mA/cm^2): 3.7%
- Antifactor activity Xa/ml at 6 hours [2, 4]: 0.12 units per ml
- Antifactor activity Xa/ml at 24 hours [2, 4]: 0.6 units per ml
- total diffused quantity ([2]; test 2a: titanium, passive): 4.64 μg per cm^2
- Antifactor activity Xa/ml at 6 hours ([2]; test 2b: graphite, 0.2 mA/cm^2): 6 units per ml
- total diffused quantity ([2]; test 2b: graphite, 0.2 mA/cm^2): 45 μg per cm^2
- Antifactor activity Xa/ml at 24 hours ([2]; test 2b: graphite, 0.2 mA/cm^2, 18 hours after current stopped): 5.8 units per ml
- Antifactor activity Xa/ml at 6 hours ([2]; test 2c: titanium, 0.2 mA/cm^2): 3.2 units per ml
- total diffused quantity ([2]; test 2c: titanium, 0.2 mA/cm^2): 38 μg per cm^2
- Antifactor activity Xa/ml at 24 hours ([2]; test 2c: titanium, 0.2 mA/cm^2, 18 hours after current stopped): 4.9 units per ml
- total diffused quantity per mAh ([2]; test 2d: Ag/AgCl electrodes): 154 μg/cm^2 per mAh
- total diffused quantity ([2]; test 2d: Ag/AgCl, 0.2 mA/cm^2): 185 μg per cm^2
- Antifactor activity Xa/ml at 6 hours ([2]; test 2d: Ag/AgCl, 0.2 mA/cm^2, no buffer): 18.1 units per ml
- Antifactor activity Xa/ml at 24 hours ([2]; test 2d: Ag/AgCl, 0.2 mA/cm^2, 18 hours after current stopped): 24 units per ml
